pIC50: −log10 of the molar value.
Tested on: A549 cells
Experiment: DNR-mediated cytotoxicity, MTS assay
Type: cell-based
Conditions: Homo sapiens, A549, 72 h, read-out: IC50 AVG
Protocol: Because DNR is a cytotoxic compound, the effectiveness of cystine liposomal DNR as an intracellular delivery system was assessed by relying on cytotoxicity measurements as a measure of DNR uptake. […] Cytotoxicity was measured in A549 cells following the addition of the aforementioned DNR formulations to the cells followed by an incubation period, and determination of cytotoxicity by using a MTS assay. Briefly, an MTS assay is a non radioactive cell proliferative assay of a tetrazolium compound (3-(4,5-dimethylthiazol-2-yl)-5-(3-carboxymethoxyphenyl)-2-(4-sulfophenyl)-2H-tetrazolium, inner salt; MTS) and the electron coupling reagent, phenazine methosulfate (PMS). MTS is bio-reduced by cells to a formazan compound by a reductase enzyme present in metabolically active cells. The absorbance of the formazan compound can be measured at 490 nm wavelength and is directly proportional to the number of living cells. The toxicity was determined using dose response curve to determine IC50. IC50 is the concentration of the test compound required to reduce light absorbance capacity of the cells by 50%.
MTS reagent was prepared by mixing 20% MTS and 1% PMS solution in RPMI 1640 medium of volume 8 ml. […] The amount of formazan was measured at 490 nm wavelength. […]

COc1cccc2c1C(=O)c1c(O)c3c(c(O)c1C2=O)C[C@@](O)(C(C)=O)C[C@@H]3O[C@H]1C[C@H](N)[C@H](O)[C@H](C)O1 [Free DNR, daunorubicin]
pIC50: 4.82
